Measured values as given in the supplement of paper PMC11208160.
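Further: IS621 bridge recombinase in Escherichia coli cells against a fixed T5 target plasmid.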

Assay: recombinant UMI read abundance after kanamycin selection (control-corrected) (log10(CPM+1)); higher = more efficient recombination; extreme values may be limits of the assay; sequences stand for … in AGTGCAGAGAAAATCGGCCAGTTTTCTCTGCCTGCAGTCCGCATGCCGTGGGACCCCTTGGGTTCTAACCTGTTGCCTAGATTTATGCAGCGGACTGCCTTTCTCCCAAAGTGATAAACCGG…AGGTTGGTTTCACT; site = the 11-nt donor
Method: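 Pooled E. coli donor-specificity screen for the IS621 bridge recombinase. Each library member carries a reprogrammed 11-nt donor and a full-length LE bridge RNA expressed in cis from the natural promoter, with a paired donor-binding loop (8-nt LDG + 4-nt RDG) and a target-binding loop fixed to T5. It is co-electroporated with a T5 target plasmid; recombinase is induced with 0.07 mM IPTG and recombinants are selected on kanamycin. UMIs are counted as CPM, averaged over two biological replicates and corrected by the unselected control. Molecule = full bridge RNA written as DNA, built from the T5 scaffold: LDG = donor specificity nt 1-8, RDG = reverse complement of nt 8-11.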
For “ACTAGAACATGGACCGGTTTTCCCGGTAATCCGTATTTGAG (site ACTAGAACTCA)”, the “recombinant UMI read abundance (log10)” value was 0.00396.
For “ACTAGAACATGGACCGGTTTTCCCGGTAATCCGTATTTGAG (site ACTAGAACTCC)”, the “recombinant UMI read abundance (log10)” value was 0.0223.
For “ACTAGAACATGGACCGGTTTTCCCGGTAATCCGTATTTGAG (site ACTAGAACTCG)”, the “recombinant UMI read abundance (log10)” value was 0.
With “ACTAGAACATGGACCGGTTTTCCCGGTAATCCGTATTTGAG (site ACTAGAACTCT)” the “recombinant UMI read abundance (log10)” value was 1.72.
In the case of “ACTAGAACATGGACCGGTTTTCCCGGTAATCCGTATTTGAG (site ACTAGAACTGT)”, the “recombinant UMI read abundance (log10)” value is reported as 0.
For “ACTAGAACATGGACCGGTTTTCCCGGTAATCCGTATTTGAG (site ACTAGAACTTT)”, the “recombinant UMI read abundance (log10)” value was 0.286.
With “ACTAGAACATGGACCGGTTTTCCCGGTAATCCGTATTTGAG (site ACTAGACCTCT)” the “recombinant UMI read abundance (log10)” value was 0.00567.
In the case of “ACTAGAACATGGACCGGTTTTCCCGGTAATCCGTATTTGAG (site ACTAGAGCTCT)”, the “recombinant UMI read abundance (log10)” value is reported as 0.324.
In the case of “ACTAGAACATGGACCGGTTTTCCCGGTAATCCGTATTTGAG (site ACTAGATCTCT)”, the “recombinant UMI read abundance (log10)” value is reported as 1.72.
In the case of “ACTAGAACATGGACCGGTTTTCCCGGTAATCCGTATTTGAG (site ACTAGCACTCT)”, the “recombinant UMI read abundance (log10)” value is reported as 0.0125.
In the case of “ACTAGAACATGGACCGGTTTTCCCGGTAATCCGTATTTGAG (site ACTAGGACTCT)”, the “recombinant UMI read abundance (log10)” value is reported as 0.407.
With “ACTAGAACATGGACCGGTTTTCCCGGTAATCCGTATTTGAG (site ACTAGTACTCT)” the “recombinant UMI read abundance (log10)” value was 0.0383.
For “ACTAGAACATGGACCGGTTTTCCCGGTAATCCGTATTTGAG (site ACTATAACTCT)”, the “recombinant UMI read abundance (log10)” value was 1.22.
With “ACTAGAACATGGACCGGTTTTCCCGGTAATCCGTATTTGAG (site ACTCGAACTCT)” the “recombinant UMI read abundance (log10)” value was 0.115.
In the case of “ACTAGAACATGGACCGGTTTTCCCGGTAATCCGTATTTGAG (site ACTGGAACTCT)”, the “recombinant UMI read abundance (log10)” value is reported as 0.3.
For “ACTAGAACATGGACCGGTTTTCCCGGTAATCCGTATTTGAG (site ACTTGAACTCT)”, the “recombinant UMI read abundance (log10)” value was 0.118.
For “ACTAGAACATGGACCGGTTTTCCCGGTAATCCGTATTTGAG (site AGTAGAACTCT)”, the “recombinant UMI read abundance (log10)” value was 0.227.
With “ACTAGAACATGGACCGGTTTTCCCGGTAATCCGTATTTGAG (site ATTAGAACTCT)” the “recombinant UMI read abundance (log10)” value was 1.34.
For “ACTAGAACATGGACCGGTTTTCCCGGTAATCCGTATTTGAG (site CCTAGAACTCT)”, the “recombinant UMI read abundance (log10)” value was 1.33.
With “ACTAGAACATGGACCGGTTTTCCCGGTAATCCGTATTTGAG (site GCTAGAACTCT)” the “recombinant UMI read abundance (log10)” value was 0.34.
For “ACTAGAACATGGACCGGTTTTCCCGGTAATCCGTATTTGAG (site TCTAGAACTCT)”, the “recombinant UMI read abundance (log10)” value was 0.854.
For “ACTAGAACATGGACCGGTTTTCCCGGTAATCCGTATTTGCG (site ACTAGAACTCA)”, the “recombinant UMI read abundance (log10)” value was 0.0146.
For “ACTAGAACATGGACCGGTTTTCCCGGTAATCCGTATTTGCG (site ACTAGAACTCC)”, the “recombinant UMI read abundance (log10)” value was 0.0147.
With “ACTAGAACATGGACCGGTTTTCCCGGTAATCCGTATTTGCG (site ACTAGAACTCG)” the “recombinant UMI read abundance (log10)” value was 2.19.
In the case of “ACTAGAACATGGACCGGTTTTCCCGGTAATCCGTATTTGCG (site ACTAGAACTCT)”, the “recombinant UMI read abundance (log10)” value is reported as 0.412.
With “ACTAGACCATGGACCGGTTTTCCCGGTAATCCGTATTTGGA (site ACTAGACCTTC)” the “recombinant UMI read abundance (log10)” value was 0.014.
For “ACTAGAGCATGGACCGGTTTTCCCGGTAATCCGTATTTGAG (site ACTAGAACTCT)”, the “recombinant UMI read abundance (log10)” value was 1.52.
In the case of “ACTAGAGCATGGACCGGTTTTCCCGGTAATCCGTATTTGAG (site ACTAGACCTCT)”, the “recombinant UMI read abundance (log10)” value is reported as 0.
With “ACTAGAGCATGGACCGGTTTTCCCGGTAATCCGTATTTGAG (site ACTAGAGCTCT)” the “recombinant UMI read abundance (log10)” value was 2.15.
For “ACTAGAGCATGGACCGGTTTTCCCGGTAATCCGTATTTGAG (site ACTAGATCTCT)”, the “recombinant UMI read abundance (log10)” value was 1.65.
For “ACTAGAGCATGGACCGGTTTTCCCGGTAATCCGTATTTGCA (site ACTAGAGCTTG)”, the “recombinant UMI read abundance (log10)” value was 2.15.
For “ACTAGCGCATGGACCGGTTTTCCCGGTAATCCGTATTTGGT (site ACTAGAGCTAC)”, the “recombinant UMI read abundance (log10)” value was 0.428.
In the case of “ACTAGCGCATGGACCGGTTTTCCCGGTAATCCGTATTTGGT (site ACTAGCGCTAC)”, the “recombinant UMI read abundance (log10)” value is reported as 1.86.
With “ACTAGCGCATGGACCGGTTTTCCCGGTAATCCGTATTTGGT (site ACTAGGGCTAC)” the “recombinant UMI read abundance (log10)” value was 0.00433.
In the case of “ACTAGCGCATGGACCGGTTTTCCCGGTAATCCGTATTTGGT (site ACTAGTGCTAC)”, the “recombinant UMI read abundance (log10)” value is reported as 0.00815.
In the case of “ACTAGGACATGGACCGGTTTTCCCGGTAATCCGTATTTGAG (site ACTAGAACTCT)”, the “recombinant UMI read abundance (log10)” value is reported as 2.04.
In the case of “ACTAGGACATGGACCGGTTTTCCCGGTAATCCGTATTTGAG (site ACTAGCACTCT)”, the “recombinant UMI read abundance (log10)” value is reported as 0.00393.
For “ACTAGGACATGGACCGGTTTTCCCGGTAATCCGTATTTGAG (site ACTAGGACTCT)”, the “recombinant UMI read abundance (log10)” value was 2.15.
With “ACTAGGACATGGACCGGTTTTCCCGGTAATCCGTATTTGAG (site ACTAGTACTCT)” the “recombinant UMI read abundance (log10)” value was 0.226.
In the case of “ACTAGGGCATGGACCGGTTTTCCCGGTAATCCGTATTTGGT (site ACTAGAGCTAC)”, the “recombinant UMI read abundance (log10)” value is reported as 1.2.
With “ACTAGGGCATGGACCGGTTTTCCCGGTAATCCGTATTTGGT (site ACTAGCGCTAC)” the “recombinant UMI read abundance (log10)” value was 0.00536.
For “ACTAGGGCATGGACCGGTTTTCCCGGTAATCCGTATTTGGT (site ACTAGGGCTAC)”, the “recombinant UMI read abundance (log10)” value was 1.2.
With “ACTAGGGCATGGACCGGTTTTCCCGGTAATCCGTATTTGGT (site ACTAGTGCTAC)” the “recombinant UMI read abundance (log10)” value was 0.0165.
For “ACTAGTACATGGACCGGTTTTCCCGGTAATCCGTATTTGGT (site ACTAGTACTAC)”, the “recombinant UMI read abundance (log10)” value was 1.19.
With “ACTAGTACATGGACCGGTTTTCCCGGTAATCCGTATTTGGT (site ACTAGTCCTAC)” the “recombinant UMI read abundance (log10)” value was 0.00589.
In the case of “ACTAGTACATGGACCGGTTTTCCCGGTAATCCGTATTTGGT (site ACTAGTGCTAC)”, the “recombinant UMI read abundance (log10)” value is reported as 0.181.
With “ACTAGTACATGGACCGGTTTTCCCGGTAATCCGTATTTGGT (site ACTAGTTCTAC)” the “recombinant UMI read abundance (log10)” value was 0.
In the case of “ACTAGTGCATGGACCGGTTTTCCCGGTAATCCGTATTTGCC (site ACTAGTGCTGG)”, the “recombinant UMI read abundance (log10)” value is reported as 1.93.
In the case of “ACTAGTTCATGGACCGGTTTTCCCGGTAATCCGTATTTGAA (site ACTAGTTCTTT)”, the “recombinant UMI read abundance (log10)” value is reported as 1.03.
For “ACTATGCCATGGACCGGTTTTCCCGGTAATCCGTATTTGTC (site ACTATGCCTGA)”, the “recombinant UMI read abundance (log10)” value was 0.
In the case of “ACTCATCCATGGACCGGTTTTCCCGGTAATCCGTATTTGAC (site ACACATCCTGT)”, the “recombinant UMI read abundance (log10)” value is reported as 0.
In the case of “ACTCATCCATGGACCGGTTTTCCCGGTAATCCGTATTTGAC (site ACCCATCCTGT)”, the “recombinant UMI read abundance (log10)” value is reported as 0.872.
In the case of “ACTCATCCATGGACCGGTTTTCCCGGTAATCCGTATTTGAC (site ACGCATCCTGT)”, the “recombinant UMI read abundance (log10)” value is reported as 0.525.
With “ACTCATCCATGGACCGGTTTTCCCGGTAATCCGTATTTGAC (site ACTCATCCTGT)” the “recombinant UMI read abundance (log10)” value was 0.798.
With “ACTCCAACATGGACCGGTTTTCCCGGTAATCCGTATTTGCT (site ACTCCAACTAG)” the “recombinant UMI read abundance (log10)” value was 1.66.
With “ACTCCACCATGGACCGGTTTTCCCGGTAATCCGTATTTGTG (site ACTCCACCTCA)” the “recombinant UMI read abundance (log10)” value was 0.0232.
With “ACTCCGACATGGACCGGTTTTCCCGGTAATCCGTATTTGGC (site ACTCCGACTGC)” the “recombinant UMI read abundance (log10)” value was 1.98.
